Measured values as given in PubChem BioAssay AID1918935 (Molecular Pharmacology Branch, DTP, NCI, 2023).
Several values for one entry are separate records, joined by “and”; a condition that tells them apart may be missing. Equal values may be shown once.

System: 324938-238-R-J1-PDC complex spheroid viability
Assay: Anticancer human tumor 324938-238-R-J1-PDC patient-derived bladder carcinoma cell line growth inhibition
Settings: for viability, T/C: stronger effect = lower value; active = viability on the fitted dose curve at most 10% of control; inactive = the rest
In short: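 Complex spheroids of tumor cells with HUVEC and human MSCs, exposed to iadademstat combined with other agents. Each agent tested in half-log steps from near clinical Cmax (else 10 microM top), DMSO ≤0.25%.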

[1] = curve of first compound, second compound 0.1 µM
[2] = curve of first compound, second compound 0.316 µM
[3] = curve of first compound, second compound 1 µM
[4] = curve of first compound, second compound 3.16 µM
[5] = curve of first compound, second compound 10 µM
[6] = second compound 0.1 µM, first compound 0.0316 µM
[7] = second compound 0.1 µM, first compound 0.1 µM
[8] = second compound 0.1 µM, first compound 0.316 µM
[9] = second compound 0.1 µM, first compound 1 µM
[10] = second compound 0.1 µM, first compound 3.16 µM
[11] = second compound 0.1 µM, first compound 10 µM
[12] = second compound 0.316 µM, first compound 0.0316 µM
[13] = second compound 0.316 µM, first compound 0.1 µM
[14] = second compound 0.316 µM, first compound 0.316 µM
[15] = second compound 0.316 µM, first compound 1 µM
[16] = second compound 0.316 µM, first compound 3.16 µM
[17] = second compound 0.316 µM, first compound 10 µM
[18] = second compound 1 µM, first compound 0.0316 µM
[19] = second compound 1 µM, first compound 0.1 µM
[20] = second compound 1 µM, first compound 0.316 µM
[21] = second compound 1 µM, first compound 1 µM
[22] = second compound 1 µM, first compound 3.16 µM
[23] = second compound 1 µM, first compound 10 µM
[24] = second compound 3.16 µM, first compound 0.0316 µM
[25] = second compound 3.16 µM, first compound 0.1 µM
[26] = second compound 3.16 µM, first compound 0.316 µM
[27] = second compound 3.16 µM, first compound 1 µM
[28] = second compound 3.16 µM, first compound 3.16 µM
[29] = second compound 3.16 µM, first compound 10 µM
[30] = second compound 10 µM, first compound 0.0316 µM
[31] = second compound 10 µM, first compound 0.1 µM
[32] = second compound 10 µM, first compound 0.316 µM
[33] = second compound 10 µM, first compound 1 µM
[34] = second compound 10 µM, first compound 3.16 µM
[35] = second compound 10 µM, first compound 10 µM
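Also: spheroids also contain HUVEC and human MSCs and agents combined with iadademstat; spheroids exposed to agents for 7 days before readout.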

O=C(c1cc(Cc2n[nH]c(=O)c3ccccc23)ccc1F)N1CCN(C(=O)C2CC2)CC1 + NC1CCC(NC2CC2c2ccccc2)CC1
2760 nM: IC50 [2]
3970 nM: IC50 [3]
2900 nM: IC50 [1]
2720 nM: IC50 [4]
2480 nM: IC50 [5]
inactive: viability, T/C [6] 80.8% | viability, T/C [7] 80.9% | viability, T/C [8] 86.4% | viability, T/C [9] 68.1% | viability, T/C [10] 49.9% | viability, T/C [11] 41.5% | viability, T/C [12] 78.7% | viability, T/C [13] 82.7% | viability, T/C [14] 83.7% | viability, T/C [15] 64.4% | viability, T/C [16] 49.8% | viability, T/C [17] 36.5% | viability, T/C [18] 77.7% | viability, T/C [19] 71.3% | viability, T/C [20] 80% | viability, T/C [21] 69.3% | viability, T/C [22] 53.3% | viability, T/C [23] 37.9% | viability, T/C [24] 73.2% | viability, T/C [25] 74.1% | viability, T/C [26] 73.2% | viability, T/C [27] 71% | viability, T/C [28] 46.9% | viability, T/C [29] 39.6% | viability, T/C [30] 70.6% | viability, T/C [31] 65.8% | viability, T/C [32] 77% | viability, T/C [33] 59.3% | viability, T/C [34] 49.9% | viability, T/C [35] 45.1%

CC(C)CC(NC(=O)C(Cc1ccccc1)NC(=O)c1cnccn1)B(O)O (configuration not stated) + NC1CC1c1ccc(-c2cccc(O)c2)cc1
0.34 nM: IC50 [5]
0.389 nM: IC50 [4]
0.404 nM: IC50 [2]
0.364 nM: IC50 [3]
inactive: viability, T/C (second compound 0.1 µM, first compound 0.000316 µM) 68.2% | viability, T/C (second compound 0.1 µM, first compound 0.001 µM) 12.1% | viability, T/C (second compound 0.316 µM, first compound 0.000316 µM) 62% | viability, T/C (second compound 1 µM, first compound 0.000316 µM) 56% | viability, T/C (second compound 3.16 µM, first compound 0.000316 µM) 59.2% | viability, T/C (second compound 10 µM, first compound 0.000316 µM) 53.1%
0.458 nM: IC50 [1]
active: viability, T/C (second compound 0.1 µM, first compound 0.00316 µM) 0.5% | viability, T/C (second compound 0.1 µM, first compound 0.01 µM) 2.29% | viability, T/C [6] 0.55% | viability, T/C [7] 0.16% | viability, T/C (second compound 0.316 µM, first compound 0.001 µM) 5.56% | viability, T/C (second compound 0.316 µM, first compound 0.00316 µM) 0.25% | viability, T/C (second compound 0.316 µM, first compound 0.01 µM) 0.3% | viability, T/C [12] 0.26% | viability, T/C [13] 0.14% | viability, T/C (second compound 1 µM, first compound 0.001 µM) 6.79% | viability, T/C (second compound 1 µM, first compound 0.00316 µM) 0.15% | viability, T/C (second compound 1 µM, first compound 0.01 µM) 0.61% | viability, T/C [18] 0.07% | viability, T/C [19] 0.17% | viability, T/C (second compound 3.16 µM, first compound 0.001 µM) 7.68% | viability, T/C (second compound 3.16 µM, first compound 0.00316 µM) 0.39% | viability, T/C (second compound 3.16 µM, first compound 0.01 µM) 0.28% | viability, T/C [24] 0.28% | viability, T/C [25] 0.14% | viability, T/C (second compound 10 µM, first compound 0.001 µM) 4.57% | viability, T/C (second compound 10 µM, first compound 0.00316 µM) 0.15% | viability, T/C (second compound 10 µM, first compound 0.01 µM) 0.15% | viability, T/C [30] 0.16% | viability, T/C [31] 0.21%

CC[C@@]1(O)C(=O)OCc2c1cc1n(c2=O)Cc2cc3c(CN(C)C)c(O)ccc3nc2-1
active: viability, T/C (compound 0.01 µM) 8.43% and 7.17% | viability, T/C (compound 0.0316 µM) 8.29% and 8.05% | viability, T/C (compound 0.1 µM) 8.03% and 7.71%
2.23 nM and 2 nM: IC50 (curve of compound)
inactive: viability, T/C (compound 0.000316 µM) 101% and 94.5% | viability, T/C (compound 0.001 µM) 93% and 83.5% | viability, T/C (compound 0.00316 µM) 31.2% and 27.9%

O=C(c1cc(Cc2n[nH]c(=O)c3ccccc23)ccc1F)N1CCN(C(=O)C2CC2)CC1 + NC1CC1c1ccc(-c2cccc(O)c2)cc1
1980 nM: IC50 [2]
917 nM: IC50 [3]
1500 nM: IC50 [4]
inactive: viability, T/C [6] 89.8% | viability, T/C [7] 80.6% | viability, T/C [8] 72.4% | viability, T/C [9] 61.4% | viability, T/C [10] 43.3% | viability, T/C [11] 33.9% | viability, T/C [12] 87.8% | viability, T/C [13] 78.5% | viability, T/C [14] 77.1% | viability, T/C [15] 62.7% | viability, T/C [16] 40.4% | viability, T/C [17] 36.3% | viability, T/C [18] 74.2% | viability, T/C [19] 74.2% | viability, T/C [20] 64.4% | viability, T/C [21] 48% | viability, T/C [22] 40.3% | viability, T/C [23] 34.1% | viability, T/C [24] 68.2% | viability, T/C [25] 74% | viability, T/C [26] 77.7% | viability, T/C [27] 56% | viability, T/C [28] 41.3% | viability, T/C [29] 36.2% | viability, T/C [30] 73.1% | viability, T/C [31] 66.7% | viability, T/C [32] 66.3% | viability, T/C [33] 49.9% | viability, T/C [34] 43.8% | viability, T/C [35] 38.2%
2150 nM: IC50 [1]
1220 nM: IC50 [5]

CCc1c2c(nc3ccc(O)cc13)-c1cc3c(c(=O)n1C2)COC(=O)[C@]3(O)CC + NC1CCC(NC2CC2c2ccccc2)CC1
inactive: viability, T/C (second compound 3.16 µM, first compound 0.000949 µM) 9.74% | viability, T/C (second compound 10 µM, first compound 0.000949 µM) 9.49%
active: viability, T/C (second compound 0.1 µM, first compound 0.000949 µM) 8.91% | viability, T/C (second compound 0.1 µM, first compound 0.003 µM) 8.28% | viability, T/C (second compound 0.1 µM, first compound 0.00949 µM) 5.05% | viability, T/C (second compound 0.1 µM, first compound 0.03 µM) 2.05% | viability, T/C (second compound 0.1 µM, first compound 0.0949 µM) 0.06% | viability, T/C (second compound 0.1 µM, first compound 0.3 µM) 0.13% | viability, T/C (second compound 0.316 µM, first compound 0.000949 µM) 7.86% | viability, T/C (second compound 0.316 µM, first compound 0.003 µM) 10.2% | viability, T/C (second compound 0.316 µM, first compound 0.00949 µM) 6.24% | viability, T/C (second compound 0.316 µM, first compound 0.03 µM) 2.68% | viability, T/C (second compound 0.316 µM, first compound 0.0949 µM) 0.06% | viability, T/C (second compound 0.316 µM, first compound 0.3 µM) 0.11% | viability, T/C (second compound 1 µM, first compound 0.000949 µM) 8.46% | viability, T/C (second compound 1 µM, first compound 0.003 µM) 8.97% | viability, T/C (second compound 1 µM, first compound 0.00949 µM) 6.82% | viability, T/C (second compound 1 µM, first compound 0.03 µM) 2.81% | viability, T/C (second compound 1 µM, first compound 0.0949 µM) 0.06% | viability, T/C (second compound 1 µM, first compound 0.3 µM) 0.1% | viability, T/C (second compound 3.16 µM, first compound 0.003 µM) 9.76% | viability, T/C (second compound 3.16 µM, first compound 0.00949 µM) 7.3% | viability, T/C (second compound 3.16 µM, first compound 0.03 µM) 2.95% | viability, T/C (second compound 3.16 µM, first compound 0.0949 µM) 0.08% | viability, T/C (second compound 3.16 µM, first compound 0.3 µM) 0.11% | viability, T/C (second compound 10 µM, first compound 0.003 µM) 9.84% | viability, T/C (second compound 10 µM, first compound 0.00949 µM) 8.1% | viability, T/C (second compound 10 µM, first compound 0.03 µM) 2.75% | viability, T/C (second compound 10 µM, first compound 0.0949 µM) 0.08% | viability, T/C (second compound 10 µM, first compound 0.3 µM) 0.13%
< 0.949 nM: IC50 [1] | IC50 [2] | IC50 [3] | IC50 [4] | IC50 [5]

COc1ccc([C@@H](O)c2cc(-c3ncnc4cc(N5CCOCC5)ccc34)c(F)cc2Cl)nn1 + NC1CC1c1ccc(-c2cccc(O)c2)cc1
411 nM: IC50 [3]
481 nM: IC50 [2]
inactive: viability, T/C [6] 82.3% | viability, T/C [7] 77.6% | viability, T/C [8] 65.2% | viability, T/C [9] 54% | viability, T/C [10] 41.5% | viability, T/C [11] 25.7% | viability, T/C [12] 71.3% | viability, T/C [13] 61.8% | viability, T/C [14] 52% | viability, T/C [15] 45.7% | viability, T/C [16] 34.9% | viability, T/C [17] 25% | viability, T/C [18] 63.6% | viability, T/C [19] 60.5% | viability, T/C [20] 49.6% | viability, T/C [21] 43.2% | viability, T/C [22] 37.5% | viability, T/C [23] 23.4% | viability, T/C [24] 62.6% | viability, T/C [25] 59.4% | viability, T/C [26] 49.4% | viability, T/C [27] 39.7% | viability, T/C [28] 35.3% | viability, T/C [29] 25.6% | viability, T/C [30] 64.2% | viability, T/C [31] 60.2% | viability, T/C [32] 55.6% | viability, T/C [33] 38.5% | viability, T/C [34] 32.7% | viability, T/C [35] 21.8%
1440 nM: IC50 [1]
439 nM: IC50 [5]
313 nM: IC50 [4]
